Active and inactive are the calls of the source. The rule behind the calls is not given here.

In this series the test system is rodent carcinogenicity bioassays, tumor incidence. The experiment in a line: CCRIS carcinogenicity studies. In a few lines:
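Archive of carcinogenicity, mutagenicity, tumor promotion and tumor inhibition results drawn from journals, NCI reports and other sources, expert-reviewed; covers 1985-2011 and is no longer updated.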

Turning to `C/C=C/c1ccc(O)c(OC)c1`, the carcinogen call reads like this: (Species: Mouse, Strain/Sex: B6C3F1 /Female (50/Group), Route: Oral, Dose: 0, 75, 150, 300 mg/kg in corn oil, by gavage, 5 d/wk for 2 yr, Dose: 0, 75, 150, 300 mg/kg in corn oil, by gavage, 5 d/wk for 2 yr) “inactive; negative. (authors describe as equivocal evidence based on incidence of histiocy”; (Species: Mouse, Strain/Sex: B6C3F1 /Male (50/Group), Route: Oral, Dose: 0, 75, 150, 300 mg/kg in corn oil, by gavage, 5 d/wk for 2 yr, Dose: 0, 75, 150, 300 mg/kg in corn oil, by gavage, 5 d/wk for 2 yr, Tumor Site: Type of Lesion: Liver: hepatocellular adenoma (24/50, 35/50, 37/50, 33/50), hepatocellular carcinoma (8/50, 18/50, 19/50, 18/50), hepato, Tumor Site: Type of Lesion: Liver: hepatocellular adenoma (24/50, 35/50, 37/50, 33/50), hepatocellular carcinoma (8/50, 18/50, 19/50, 18/50), hepato) “active; positive. (authors describe as clear evidence)”; (Species: Rat, Strain/Sex: F344/N / Female (50/Group), Route: Oral, Dose: 0, 75, 150, 300 mg/kg in corn oil, by gavage, 5 d/wk for 2 yr, Dose: 0, 75, 150, 300 mg/kg in corn oil, by gavage, 5 d/wk for 2 yr) “inactive; negative”; (Species: Rat, Strain/Sex: F344/N / Male (50/Group), Route: Oral, Dose: 0, 75, 150, 300 mg/kg in corn oil, by gavage, 5 d/wk for 2 yr, Dose: 0, 75, 150, 300 mg/kg in corn oil, by gavage, 5 d/wk for 2 yr) “inactive; negative. (authors describe as equivocal evidence based on incidence of thymoma,”.

Turning to `C=CCOCC1CO1` (centres undefined), the carcinogen call was “equivocal” (Species: MOUSE, Strain/Sex: B6C3F1/FEMALE, Route: INHALATION, Dose: 0, 5, 10 PPM 6 HR/D 5 D/WK FOR 102 WK (STUDY DURATION: 105 WK), Dose: 0, 5, 10 PPM 6 HR/D 5 D/WK FOR 102 WK (STUDY DURATION: 105 WK), Tumor Site: Type of Lesion: NOSE (RESPIRATORY EPITHELIUM): ADENOMA); “active; positive” (Species: MOUSE, Strain/Sex: B6C3F1/MALE, Route: INHALATION, Dose: 0, 5, 10 PPM 6 HR/D 5 D/WK FOR 102 WK (STUDY DURATION: 105 WK), Dose: 0, 5, 10 PPM 6 HR/D 5 D/WK FOR 102 WK (STUDY DURATION: 105 WK), Tumor Site: Type of Lesion: NOSE (RESPIRATORY EPITHELIUM): ADENOMA); “inactive; negative” (Species: RAT, Strain/Sex: OSBORNE-MENDEL/FEMALE, Route: INHALATION, Dose: 0, 5, 10 PPM 6 HR/D 5 D/WK FOR 103 WK (STUDY DURATION: 106 WK), Dose: 0, 5, 10 PPM 6 HR/D 5 D/WK FOR 103 WK (STUDY DURATION: 106 WK)); “equivocal” (Species: RAT, Strain/Sex: OSBORNE-MENDEL/MALE, Route: INHALATION, Dose: 0, 5, 10 PPM 6 HR/D 5 D/WK FOR 103 WK (STUDY DURATION: 106 WK), Dose: 0, 5, 10 PPM 6 HR/D 5 D/WK FOR 103 WK (STUDY DURATION: 106 WK), Tumor Site: Type of Lesion: NOSE (RESPIRATORY OR OLFACTORY EPITHELIUM): PAPILLARY ADENOMA, SQUAMOUS CELL CARCINOMA, POORLY DIFFERENTIATED ADENOCARCI).

Regarding `[N-]=[N+]=CC(=O)OC[C@H](N)C(=O)O`, the carcinogen call (Species: RAT, Strain/Sex: WISTAR/MALE,FEMALE, Route: INTRAPERITONEAL, Dose: 5 MG/KG 1-2 TIMES PER WK FOR 6 MO, Tumor Site: Type of Lesion: KIDNEY: PAPILLARY EPITHELIAL TUMOR, CLEAR CELL TUMOR, TUBULAR ADENOMA, PANCREAS: ADENOCARCINOMA) was “active; positive”.

`CCc1cc(C(N)=S)ccn1`: the carcinogen call runs as follows: (Species: MOUSE, Route: ORAL, Tumor Site: Type of Lesion: THYROID GLAND) “active; positive”; (Species: MOUSE, Strain/Sex: B6C3F1/FEMALE, Route: ORAL, Dose: 0, 1000, 2000 PPM IN DIET, Dose: 0, 1000, 2000 PPM IN DIET) “inactive; negative”; (Species: MOUSE, Strain/Sex: B6C3F1/MALE, Route: ORAL, Dose: 0, 1000, 2000 PPM IN DIET, Dose: 0, 1000, 2000 PPM IN DIET) “inactive; negative”; (Species: RAT, Strain/Sex: F344/FEMALE, Route: ORAL, Dose: 0, 1500, 3000 PPM IN DIET, Dose: 0, 1500, 3000 PPM IN DIET) “inactive; negative”; (Species: RAT, Strain/Sex: F344/MALE, Route: ORAL, Dose: 0, 1500, 3000 PPM IN DIET, Dose: 0, 1500, 3000 PPM IN DIET) “inactive; negative”.

These data come from PubChem BioAssay AID1259411 (Chemical Carcinogenesis Research Information System (CCRIS), 2018).
